Experimental data taken from patent publication US20040208782A1, “Composition and process for chemical and thermal disinfection” (priority 2003, published 2004).
Where “and” joins values, the source holds several entries; their conditions need not be identical. Equal entries are not always repeated.

What was measured:
[1] = Solubility in water; assay type: physicochemical
[2] = Stoppered cylinder foam test (Test 3); assay type: physicochemical; conditions: 0.1% by weight aqueous solution, room temperature
Experimental: The test is used for qualitative assessment of the foaming behaviour of solutions.
The solution to be tested is introduced, avoiding foaming as far as possible, up to the 30 ml mark in a 100 ml measuring cylinder (graduated). It is advisable to hold the cylinder at an angle and allow the solution to run slowly down the wall of the mixing cylinder. The stopper is then inserted.
If foam has nevertheless formed when introducing the solution, the test is not carried out until the foam has completely disappeared. The stoppered cylinder is shaken vigorously 10×, and the stopclock is started. The total volume of solution and foam is then read off in ml after previously specified times.
Test 3 at Room Temperature

[3] = test system: bacteria, fungi and mycobacteria; assay: Quantitative suspension test, overall spectrum of activity (result statements); assay type: cell-based; conditions: 0.1% by weight
[4] = test system: Mycobacterium terrae (ATCC15755); assay: Mycobacterium terrae quantitative suspension test (Test 2), reduction factors; assay type: cell-based; conditions: for activity for Mycobacterium terrae (in words): 0.1% by weight; for reduction factor: Example 4, 0.1% by weight

SMILES | solubility in water [1] | foaming behaviour (in words) [2] | antimicrobial activity (in words) ([3]; 50° C., gram-positive and gram-negative bacteria, yeasts and mycobacteria) | antimicrobial activity (in words) ([3]; low temperature) | activity for Mycobacterium terrae (in words) ([4]; 50° C.) | activity for Mycobacterium terrae (in words) ([4]; room temperature, only at 60 minutes in 30% by weight ethanol solution) | activity (in words) ([4]; 0.1% strength or 0.05% strength aqueous solution, elevated temperature (e.g. 60° C.)) | reduction factor ([4]; 50° C., action for 15′) | reduction factor ([4]; 50° C., action for 30′) | reduction factor ([4]; 50° C., action for 60′) | activity on Mycobacterium terrae (in words) ([4]; above room temperature, alkaline range)
CCCCCCCCOCC(O)CO (stereo not shown) [1-(n-octyl)glycerol ether] | < 0.2 % by weight and > 0.1 % by weight | pronounced foaming |  |  |  |  |  |  |  |  | 
CCCCC(CC)COCC(O)CO (stereo not shown) [SC 50, 1-(2-Ethylhexyl)glycerol ether] | 0.18 % by weight | virtually no foam | broad activity | virtually no antimicrobial activity | active | good activity | excellent activity | 4.80 | 4.66 | 5.52 | excellent activity
